Read-outs that look alike come from different tables or passages of the source.
How the values were obtained:
xanthine oxidase [1] = biological target: T1, xanthine oxidase (Homo sapiens, UniProt P47989)
clinical [2] = conditions: human, in vivo; for Vd/F: Vss/F
Experimental: The development of the previously described embodiments resulted from a long drug development process. […] The study was also designed to assess the pharmacokinetic and pharmacodynamic profiles of multiple daily oral doses over a range of doses and ranges, including both once-daily and twice-daily administration.
Samples were analyzed by high performance liquid chromatography.

xanthine oxidase [3] = biological target: T1, xanthine oxidase; remark: listed apart in the source
[4] = Phase 1 single-dose 5-way crossover study of four extended release and one immediate release febuxostat formulation; format: in vivo, human; conditions: all subjects, all formulations
Text: This examples describes the results of a phase 1, single-center, open-label, randomized, 5-way crossover study. Thirty-five adult male and female subjects aged 18 to 55 years, inclusive, in good health, were selected to participate in this study.

[5] = cited from earlier work; for fu (free fraction in plasma): in %
clinical [6] = conditions: human, plasma, po
[7] = normal patients, 14C, nominal 1 μg/mL
[8] = patients with severe renal impairment

T1 sequence (P47989 whole entry): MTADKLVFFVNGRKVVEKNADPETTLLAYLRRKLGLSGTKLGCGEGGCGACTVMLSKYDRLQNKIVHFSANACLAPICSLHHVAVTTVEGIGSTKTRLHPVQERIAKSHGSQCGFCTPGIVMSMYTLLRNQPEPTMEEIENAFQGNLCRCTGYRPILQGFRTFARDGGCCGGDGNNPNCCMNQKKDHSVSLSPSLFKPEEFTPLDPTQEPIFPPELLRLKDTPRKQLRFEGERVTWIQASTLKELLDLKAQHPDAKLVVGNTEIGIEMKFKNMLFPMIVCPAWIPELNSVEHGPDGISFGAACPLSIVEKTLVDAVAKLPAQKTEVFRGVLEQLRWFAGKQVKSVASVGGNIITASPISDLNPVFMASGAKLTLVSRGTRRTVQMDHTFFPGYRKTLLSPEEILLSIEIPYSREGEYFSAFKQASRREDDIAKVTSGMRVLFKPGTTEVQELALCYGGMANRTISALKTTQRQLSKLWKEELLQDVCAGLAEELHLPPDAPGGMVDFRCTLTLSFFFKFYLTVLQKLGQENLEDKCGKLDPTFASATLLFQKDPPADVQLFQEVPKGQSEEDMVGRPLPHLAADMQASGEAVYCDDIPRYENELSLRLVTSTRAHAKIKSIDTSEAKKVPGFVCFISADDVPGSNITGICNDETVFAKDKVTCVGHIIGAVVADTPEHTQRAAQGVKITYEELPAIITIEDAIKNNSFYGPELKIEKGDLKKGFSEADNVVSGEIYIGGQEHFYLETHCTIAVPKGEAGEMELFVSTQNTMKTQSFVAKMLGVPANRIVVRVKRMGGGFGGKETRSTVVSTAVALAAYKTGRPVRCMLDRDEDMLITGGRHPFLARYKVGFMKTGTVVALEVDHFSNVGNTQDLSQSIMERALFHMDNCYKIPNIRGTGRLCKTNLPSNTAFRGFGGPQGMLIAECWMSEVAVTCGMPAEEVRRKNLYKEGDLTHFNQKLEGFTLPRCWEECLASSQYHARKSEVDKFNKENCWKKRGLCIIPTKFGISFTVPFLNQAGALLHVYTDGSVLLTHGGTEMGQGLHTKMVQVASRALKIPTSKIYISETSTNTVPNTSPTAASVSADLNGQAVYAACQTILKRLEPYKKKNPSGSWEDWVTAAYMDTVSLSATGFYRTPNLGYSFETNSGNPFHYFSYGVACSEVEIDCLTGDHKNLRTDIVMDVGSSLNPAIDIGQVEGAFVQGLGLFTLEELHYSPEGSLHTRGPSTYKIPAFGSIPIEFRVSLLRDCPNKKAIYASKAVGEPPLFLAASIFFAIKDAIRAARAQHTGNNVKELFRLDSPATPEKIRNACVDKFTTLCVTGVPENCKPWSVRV

## Cc1nc(-c2ccc(OCC(C)C)c(C#N)c2)sc1C(=O)O [Febuxostat, 2-[3-cyano-4-(2-methylpropoxy)phenyl]-4-methylthiazole-5-carboxylic acid]
Xanthine oxidase [1]; 120 mg immediate release dosage forms, other studies
  time with at least 80% inhibition of xanthine oxidase: ~14 h
Xanthine oxidase [1]; 240 mg immediate release dosage forms, further studies
  time with at least 80% inhibition of xanthine oxidase: about 22 hours
Clinical [2]
  Vd: ~0.7 L/kg
  half-life: ~6 h
Clinical [2]; 10 mg
  Cmax: 399.5 ng/mL
  Tmax: 0.70 h
  Vss/F: 42.7 L
  AUC(0-inf): 727 ng·h/mL
  Vd/F: 38.2 L
Clinical [2]; 10 mg, AUC (AUC24)
  AUC: 950 ng·h/mL
Clinical [2]; 10 mg, Cmax
  Cmax: 336 ng/mL
Clinical [2]; 10 mg, tmax
  Tmax: 0.99 h
Clinical [2]; 20 mg
  Cmax: 934.2 ng/mL
  Vss/F: 33.3 L
  AUC(0-inf): 2180 ng·h/mL
  Vd/F: 29.2 L
Clinical [2]; 20 mg, AUC (AUC24)
  AUC: 2110 ng·h/mL
Clinical [2]; 20 mg, Cmax
  Cmax: 1110 ng/mL
Clinical [2]; 20 mg, tmax
  Tmax: 1.06 h
Clinical [2]; 30 mg
  AUC (AUC12): 3308.3 ng·h/mL
  AUC (AUC∞): 2816.9 ng·h/mL
  AUC(0-inf): 2550 ng·h/mL
Clinical [2]; 30 mg, AUC (AUC12)
  AUC: 2910 ng·h/mL
Clinical [2]; 30 mg, AUC (AUC24)
  AUC: 2570 ng·h/mL
Clinical [2]; 30 mg, Cmax
  Cmax: 1120 ng/mL
Clinical [2]; 40 mg
  Cmax: 1822.1 ng/mL
  Vss/F: 49.5 L
  AUC(0-inf): 3980 ng·h/mL
  Vd/F: 48.7 L
Clinical [2]; 40 mg, AUC (AUC24)
  AUC: 4300 ng·h/mL
Clinical [2]; 40 mg, Cmax
  Cmax: 1530 ng/mL
Clinical [2]; 40 mg, tmax
  Tmax: 1.44 h
Clinical [2]; 50 mg
  Cmax: 1791.7 ng/mL
  Vss/F: 59.1 L
  AUC(0-inf): 4410 ng·h/mL
  Vd/F: 43.2 L
Clinical [2]; 50 mg, AUC (AUC24)
  AUC: 4380 ng·h/mL
Clinical [2]; 50 mg, Cmax
  Cmax: 1970 ng/mL
Clinical [2]; 50 mg, tmax
  Tmax: 0.78 h
Clinical [2]; 70 mg
  Cmax: 2689.9 ng/mL
  Vss/F: 54.1 L
  AUC(0-inf): 6930 ng·h/mL
  Vd/F: 41.6 L
Clinical [2]; 70 mg, AUC (AUC24)
  AUC: 6950 ng·h/mL
Clinical [2]; 70 mg, Cmax
  Cmax: 3080 ng/mL
Clinical [2]; 70 mg, tmax
  Tmax: 1 h
Clinical [2]; 90 mg
  Cmax: 4058.9 ng/mL
  Vss/F: 63.7 L
  AUC(0-inf): 9090 ng·h/mL
  Vd/F: 56.7 L
Clinical [2]; 90 mg, AUC (AUC24)
  AUC: 9650 ng·h/mL
Clinical [2]; 90 mg, Cmax
  Cmax: 3480 ng/mL
Clinical [2]; 90 mg, tmax
  Tmax: 0.95 h
Clinical [2]; 120 mg
  Cmax: 5307.6 ng/mL
  Vss/F: 55.1 L
  AUC(0-inf): 11300 ng·h/mL
  Vd/F: 57.8 L
Clinical [2]; 120 mg, AUC (AUC24)
  AUC: 12000 ng·h/mL
Clinical [2]; 120 mg, Cmax
  Cmax: 4470 ng/mL
Clinical [2]; 120 mg, tmax
  Tmax: 1 h
Clinical [2]; 160 mg
  Cmax: 8771.1 ng/mL
  Vss/F: 36.1 L
  AUC(0-inf): 20700 ng·h/mL
  Vd/F: 40.7 L
Clinical [2]; 160 mg, AUC (AUC24)
  AUC: 22300 ng·h/mL
Clinical [2]; 160 mg, Cmax
  Cmax: 7300 ng/mL
Clinical [2]; 160 mg, tmax
  Tmax: 0.75 h
Clinical [2]; 180 mg
  Cmax: 8048.8 ng/mL
  Tmax: 1.00 h
  Vss/F: 45.6 L
  AUC(0-inf): 25600 ng·h/mL
  Vd/F: 54.6 L
Clinical [2]; 180 mg, AUC (AUC24)
  AUC: 24000 ng·h/mL
Clinical [2]; 180 mg, Cmax
  Cmax: 8400 ng/mL
Clinical [2]; 180 mg, tmax
  Tmax: 1.07 h
Clinical [2]; 240 mg
  Cmax: 11263 ng/mL
  Vss/F: 31.3 L
  AUC(0-inf): 28300 ng·h/mL
  Vd/F: 54.6 L
Clinical [2]; 240 mg, AUC (AUC24)
  AUC: 35000 ng·h/mL
Clinical [2]; 240 mg, Cmax
  Cmax: 8390 ng/mL
Clinical [2]; 240 mg, tmax
  Tmax: 1.06 h
Clinical [2]; po
  oral clearance from the plasma: 7.3 to 15.1 L/h
Clinical [2]; po, tmax
  Tmax: ~1 h
Xanthine oxidase [3]; IR 10 mg QD, 8 hours post dose
  Percentage Inhibition of xanthine oxidase: 43.6%
Xanthine oxidase [3]; IR 10 mg QD, 12 hours post dose
  Percentage Inhibition of xanthine oxidase: 27.3%
Xanthine oxidase [3]; IR 10 mg QD, 16 hours post dose
  Percentage Inhibition of xanthine oxidase: 0%
Xanthine oxidase [3]; IR 10 mg QD, 24 hours post dose
  Percentage Inhibition of xanthine oxidase: 0%
Xanthine oxidase [3]; IR 20 mg QD, 8 hours post dose
  Percentage Inhibition of xanthine oxidase: 55.9%
Xanthine oxidase [3]; IR 20 mg QD, 12 hours post dose
  Percentage Inhibition of xanthine oxidase: 54.0%
Xanthine oxidase [3]; IR 20 mg QD, 16 hours post dose
  Percentage Inhibition of xanthine oxidase: 42.8%
Xanthine oxidase [3]; IR 20 mg QD, 24 hours post dose
  Percentage Inhibition of xanthine oxidase: 0%
Xanthine oxidase [3]; IR 30 mg QD, 8 hours post dose
  Percentage Inhibition of xanthine oxidase: 62.3%
Xanthine oxidase [3]; IR 30 mg QD, 12 hours post dose
  Percentage Inhibition of xanthine oxidase: 52.5%
Xanthine oxidase [3]; IR 30 mg QD, 16 hours post dose
  Percentage Inhibition of xanthine oxidase: 37.1%
Xanthine oxidase [3]; IR 30 mg QD, 24 hours post dose
  Percentage Inhibition of xanthine oxidase: 35.9%
Xanthine oxidase [3]; IR 40 mg QD, 8 hours post dose
  Percentage Inhibition of xanthine oxidase: 69.8%
Xanthine oxidase [3]; IR 40 mg QD, 12 hours post dose
  Percentage Inhibition of xanthine oxidase: 55.9%
Xanthine oxidase [3]; IR 40 mg QD, 16 hours post dose
  Percentage Inhibition of xanthine oxidase: 43.3%
Xanthine oxidase [3]; IR 40 mg QD, 24 hours post dose
  Percentage Inhibition of xanthine oxidase: 36.2%
Xanthine oxidase [3]; IR 50 mg QD, 8 hours post dose
  Percentage Inhibition of xanthine oxidase: 77.9%
Xanthine oxidase [3]; IR 50 mg QD, 12 hours post dose
  Percentage Inhibition of xanthine oxidase: 64.9%
Xanthine oxidase [3]; IR 50 mg QD, 16 hours post dose
  Percentage Inhibition of xanthine oxidase: 49.1%
Xanthine oxidase [3]; IR 50 mg QD, 24 hours post dose
  Percentage Inhibition of xanthine oxidase: 38.5%
Xanthine oxidase [3]; IR 70 mg QD, 8 hours post dose
  Percentage Inhibition of xanthine oxidase: 81.2%
Xanthine oxidase [3]; IR 70 mg QD, 12 hours post dose
  Percentage Inhibition of xanthine oxidase: 66.3%
Xanthine oxidase [3]; IR 70 mg QD, 16 hours post dose
  Percentage Inhibition of xanthine oxidase: 56.0%
Xanthine oxidase [3]; IR 70 mg QD, 24 hours post dose
  Percentage Inhibition of xanthine oxidase: 35.3%
Xanthine oxidase [3]; IR 90 mg QD, 8 hours post dose
  Percentage Inhibition of xanthine oxidase: 85.6%
Xanthine oxidase [3]; IR 90 mg QD, 12 hours post dose
  Percentage Inhibition of xanthine oxidase: 77.7%
Xanthine oxidase [3]; IR 90 mg QD, 16 hours post dose
  Percentage Inhibition of xanthine oxidase: 68.1%
Xanthine oxidase [3]; IR 90 mg QD, 24 hours post dose
  Percentage Inhibition of xanthine oxidase: 50.3%
Xanthine oxidase [3]; IR 120 mg QD, 8 hours post dose
  Percentage Inhibition of xanthine oxidase: 89.0%
Xanthine oxidase [3]; IR 120 mg QD, 12 hours post dose
  Percentage Inhibition of xanthine oxidase: 82.6%
Xanthine oxidase [3]; IR 120 mg QD, 16 hours post dose
  Percentage Inhibition of xanthine oxidase: 75.8%
Xanthine oxidase [3]; IR 120 mg QD, 24 hours post dose
  Percentage Inhibition of xanthine oxidase: 60.5%
Xanthine oxidase [3]; IR 120 mg, Table 2
  time for which at least 80% inhibition of xanthine oxidase is provided: ≤ 16 h
Xanthine oxidase [3]; IR 160 mg QD, 8 hours post dose
  Percentage Inhibition of xanthine oxidase: 93.9%
Xanthine oxidase [3]; IR 160 mg QD, 12 hours post dose
  Percentage Inhibition of xanthine oxidase: 90.9%
Xanthine oxidase [3]; IR 160 mg QD, 16 hours post dose
  Percentage Inhibition of xanthine oxidase: 81.4%
Xanthine oxidase [3]; IR 160 mg QD, 24 hours post dose
  Percentage Inhibition of xanthine oxidase: 67.6%
Xanthine oxidase [3]; IR 180 mg QD, 8 hours post dose
  Percentage Inhibition of xanthine oxidase: 94.7%
Xanthine oxidase [3]; IR 180 mg QD, 12 hours post dose
  Percentage Inhibition of xanthine oxidase: 91.7%
Xanthine oxidase [3]; IR 180 mg QD, 16 hours post dose
  Percentage Inhibition of xanthine oxidase: 81.5%
Xanthine oxidase [3]; IR 180 mg QD, 24 hours post dose
  Percentage Inhibition of xanthine oxidase: 68.4%
Xanthine oxidase [3]; IR 240 mg QD, 8 hours post dose
  Percentage Inhibition of xanthine oxidase: 95.7%
Xanthine oxidase [3]; IR 240 mg QD, 12 hours post dose
  Percentage Inhibition of xanthine oxidase: 91.4%
Xanthine oxidase [3]; IR 240 mg QD, 16 hours post dose
  Percentage Inhibition of xanthine oxidase: 86.5%
Xanthine oxidase [3]; IR 240 mg QD, 24 hours post dose
  Percentage Inhibition of xanthine oxidase: 72.4%
[4]
  absorption lag-time after oral dosing: no absorption lag-time
[5]; male, female, younger and elderly group of subjects
  percent free fraction of febuxostat in plasma: 0.7±0.1%
[5]; [7]
  percent fu: 0.9±0.2%
  fu (free fraction in plasma): 0.9±0.2
[5]; [8]
  percent fu: 1.2±0.2%
  fu (free fraction in plasma): 1.2±0.2
Clinical [6]; 120 mg
  Cmax: ~3900 ng/mL
Clinical [6]; 240 mg
  Cmax: 10200 ng/mL
